Measurements as given in PMC8967716, “Inhibition of calcium-triggered secretion by hydrocarbon-stapled peptides” (Nature, 2022).
“And” between values parts separate entries of the source, which are not always exact repeats. Identical values can stand only once. “Also recorded” adds a separate entry of the source. Positions of bridges follow the written chain, without caps; N, C: chain ends. Non-standard residues stand in square brackets, D forms with d. Residues, ends and D or L forms follow the SMILES beside them. S5 = C=CCCC[C@](C)(N)C(=O)O

Key:
[1] = test system: reconstituted neuronal SNAREs (Stx1A, SNAP-25A, VAMP2) and Syt1; test: Single-vesicle content mixing assay, neuronal SNAREs and Syt1; format: biochemical
[2] = test system: airway SNAREs alone; test: Single-vesicle content mixing assay, airway SNAREs alone (VAMP8 vesicles); conditions: for Ca2+ independent fusion per sec: ED Fig 7k
[3] = CD spectroscopy, α-helical content; format: physicochemical; conditions: 100 μM peptide in PBS pH 7.4, [φ]222obs relative to model helical decapeptide
Experimental: CD spectra were measured using the AVIV stop-flow CD spectropolarimeter at 190–250 nm using a cell with a 1 mm path length. […] For the correction of the baseline error, the signal from a blank run with PBS buffer was subtracted from all the experimental spectra. The α-helical content of each peptide was calculated by dividing the mean residue ellipticity [φ]222obs by the reported [φ]222obs for a model helical decapeptide.

[4] = biological target: airway SNAREs, Syt2, Munc13-2*, Munc18-2, NSF and αSNAP (Rattus norvegicus, UniProt P29101); test: Single-vesicle content mixing assay, complete reconstitution; format: biochemical
Experimental: For the complete reconstitution (Fig. 3), to form airway SM vesicles with reconstituted Stx3–Munc18-2 complex, we added the ‘disassembly factors’ (1 μM Munc18-2, 0.5 μM NSF, 5 μM αSNAP, 3 mM ATP and 3 mM Mg^2+) to tethered airway PM vesicles (Fig. 3b), according to previous work with neuronal proteins. This procedure results in tethered SM vesicles.

[5] = biological target: Syt1 C2B(QM) quintuple mutant (Rattus norvegicus, UniProt P21707, E295A/R281A/R398A/R399A/Y338W); test: Bulk fluorescence anisotropy binding; conditions: Cy3-labelled SP9, fluorescence anisotropy
[6] = biological target: reconstituted airway epithelial SNAREs (Stx3, SNAP-23, VAMP8) and Syt2 (Rattus norvegicus, UniProt P29101); test: Single-vesicle content mixing assay, simple reconstitution (SR); conditions: for Ca2+ independent fusion per sec: ED Fig 7d
[7] = test system: MUC5AC secretion from primary human airway epithelial (HAE) cells; test: Mucin-secretion assay in HAE cells; conditions: 10 μM peptide 30 min; for ratio of experimental to baseline MUC5AC secretion, mean: mean of n = 4–5 ALI cultures
[8] = test system: neuronal SNAREs alone; test: Single-vesicle content mixing assay, neuronal SNAREs alone (VAMP2 vesicles); format: biochemical
[9] = test system: airway lumenal mucus; test: Airway lumenal mucus occlusion in peptide-treated mice; conditions: IL-13 metaplasia, 200 μM peptide by microsprayer 30 min before methacholine; sections at 500 µm intervals; each value one mouse
[10] = biological target: SP9–Cy3 (hydrocarbon-stapled SNAP-25A fragment SP9 labelled with Cy3 at the C terminus); test: fluorescence polarisation; bulk fluorescence anisotropy; 10 nM Cy3-labelled peptide mixed with varying concentrations of unlabelled C2B domain; TBS (20 mM Tris, pH 7.5, 150 mM NaCl, 0.5 mM TCEP), 27.2 °C; Hill equation fit with the Hill coefficient constrained to 1
[11] = 10 μM peptide, each value one repeat experiment

reconstituted airway epithelial SNAREs (Stx3, SNAP-23, VAMP8) and Syt2, sequence (P29101 whole entry, the tested form may be a part): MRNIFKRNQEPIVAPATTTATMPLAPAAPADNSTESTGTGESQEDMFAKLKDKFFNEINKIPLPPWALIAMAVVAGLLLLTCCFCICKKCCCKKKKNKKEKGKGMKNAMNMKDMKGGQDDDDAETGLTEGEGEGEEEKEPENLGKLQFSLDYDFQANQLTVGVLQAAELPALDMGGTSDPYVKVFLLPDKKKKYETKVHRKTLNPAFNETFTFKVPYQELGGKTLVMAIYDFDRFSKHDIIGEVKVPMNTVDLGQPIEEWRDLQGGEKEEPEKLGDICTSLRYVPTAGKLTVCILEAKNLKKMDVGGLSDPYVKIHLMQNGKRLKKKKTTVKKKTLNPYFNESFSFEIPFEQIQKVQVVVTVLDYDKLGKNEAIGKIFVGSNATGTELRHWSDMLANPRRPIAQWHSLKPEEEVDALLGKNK
airway SNAREs, Syt2, Munc13-2*, Munc18-2, NSF and αSNAP, sequence (P29101 whole entry): as the sequence (P29101 whole entry, the tested form may be a part) above
Syt1 C2B(QM) quintuple mutant, sequence (P21707 271-421 R281A/E295A/Y338W/R398A/R399A): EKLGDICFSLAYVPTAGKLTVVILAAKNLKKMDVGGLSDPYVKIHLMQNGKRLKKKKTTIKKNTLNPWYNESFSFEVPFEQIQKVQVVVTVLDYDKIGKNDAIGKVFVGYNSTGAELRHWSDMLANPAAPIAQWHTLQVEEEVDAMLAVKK
Syt2 C2B (C2B domain of synaptotagmin-2, amino acid range 272–422), sequence (P29101 272-422): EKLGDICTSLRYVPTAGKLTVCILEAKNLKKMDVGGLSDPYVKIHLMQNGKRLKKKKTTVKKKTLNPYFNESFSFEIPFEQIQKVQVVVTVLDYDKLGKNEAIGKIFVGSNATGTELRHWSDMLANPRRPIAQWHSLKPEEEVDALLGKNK
Syt1 C2B (C2B domain of synaptotagmin-1, amino acid range 271–421), sequence (P21707 271-421): as the sequence (P21707 271-421 R281A/E295A/Y338W/R398A/R399A) above, with A11R, A25E, W68Y, A128R, A129R counted along it

For `CC[C@H](C)[C@H](NC(=O)[C@]1(C)CCCC=CCCC[C@](C)(NC(=O)[C@H](CCC(=O)O)NC(=O)[C@H](CCC(=O)O)NC(C)=O)C(=O)N[C@@H](CCCCN)C(=O)N[C@@H](CC(=O)O)C(=O)N[C@@H](C)C(=O)N1)C(=O)N[C@@H](CCCNC(=N)N)C(=O)N[C@@]1(C)CCCC=CCCC[C@@](C)(C(=O)N[C@@H](CC(=O)O)C(=O)N[C@@H](CCC(=O)O)C(=O)N[C@@H](CCC(N)=O)C(=O)N[C@@H](CS)C(N)=O)NC(=O)[C@H](CCSC)NC(=O)[C@H](C(C)C)NC(=O)[C@H](CC(C)C)NC1=O` [SP9] (Ac-EE[S5]KDA[S5]IR[S5]LVM[S5]DEQC-NH2; staple 3-7, 10-14), the Vesicle association ([1]; 10 μM peptide added with SV vesicles, each value one repeat experiment) was 248 and 327 and 271, the “effect on Ca2+-triggered and Ca2+-independent fusion” value ([1]; SP9 vs no peptide) was “reduced both Ca^2+-triggered fusion and Ca^2+-independent fusion” and the “effect on vesicle association” value ([1]; SP9 vs no peptide) was “no effect”. For the same molecule, the “Ca2+ independent fusion per sec” value ([2]; repeat 1) was 0.0003451, the “Ca2+ independent fusion per sec” value ([2]; repeat 2) was 0.000303 and the “Ca2+ independent fusion per sec” value ([2]; repeat 3) was 0.0004574. For the same molecule, the “Ca2+ independent fusion per sec” value ([2]; repeat 4) was 0.0004141, the “effect on vesicle fusion without Syt2 (VAMP8 vesicles)” value ([2]; SP9 vs no peptide) was “no effect; also recorded: inhibitory effect of SP9 was eliminated” and the helicity in solution [3] was “substantial helical content”. The “effect on Ca2+-independent fusion probability” value ([4]; 10 μM SP9) was “only moderately reduced; also recorded: relatively modest”, the “effect on Ca2+-triggered fusion amplitude, cumulative fusion probability and synchronization” value ([4]; 10 μM SP9, 50 μM and 500 μM Ca2+) was “strongly inhibited” and the “Ca2+ independent fusion per sec (average probability)” value ([4]; 10 μM SP9, each value one repeat experiment) was 0.0004902 and 0.0004307 and 0.0004714 and 0.0004646 and 0.0003557 and 0.0002469. For the same molecule, the Vesicle association ([4]; 10 μM SP9 added with SG vesicles, each value one repeat experiment) was 88 and 78 and 74 and 91, the “decrease in the Ca2+-triggered fusion amplitude” value ([4]; 10 μM SP9 vs no peptide) was “eight to tenfold decrease” and the “effect on vesicle association” value ([4]; 10 μM SP9 vs no peptide) was “no effect”. The “triggered fusion accumulative probability (within 1 min)” value ([4]; 50uM Ca2+, 10 μM SP9, each value one repeat experiment) was 0.0662 and 0.06402 and 0.09074, the “triggered fusion accumulative probability (within 1 min)” value ([4]; 500uM Ca2+, 10 μM SP9, each value one repeat experiment) was 0.08824 and 0.05943 and 0.07879 and the “binding to quintuple mutant Syt1 C2B(QM)” value [5] was “does not bind”. The “Ca2+ independent fusion per sec (average probability)” value ([6]; 10 μM peptide added with SG vesicles, each value one repeat experiment) was 0.0006901 and 0.0004797 and 0.000382 and 0.0006421, the “effect on Ca2+-independent fusion probability and Ca2+-triggered cumulative fusion probability” value ([6]; 10 µM peptide vs no peptide) was “reduced both Ca^2+-triggered and, to a lesser degree, Ca^2+-independent fusion” and the “Ca2+ independent fusion per sec” value ([6]; repeat 1) was 0.0006901. The “Ca2+ independent fusion per sec” value ([6]; repeat 2) was 0.0004797, the “Ca2+ independent fusion per sec” value ([6]; repeat 3) was 0.000382 and the “Ca2+ independent fusion per sec” value ([6]; repeat 4) was 0.0006421. The “effect on vesicle association” value ([6]; SP9 vs no peptide) was “no effect”, the “ratio of experimental to baseline MUC5AC secretion, mean” value ([7]; IL13+ATP (100 µM ATP)) was 3.4860 and the “ratio of experimental to baseline MUC5AC secretion, mean” value ([7]; IL13, no ATP) was 0.7820. The “ratio of baseline to reference wash MUC5AC secretion, mean” value ([7]; IL-13 cultures, mean of n = 8–10 ALI cultures) was 0.7120, the “Ca2+ independent fusion per sec (average probability)” value [8, 11] was 0.0007718 and 0.0006567 and 0.001053 and 0.0009453 and the Vesicle association [8, 11] was 135 and 160 and 137. The “effect on vesicle fusion without Syt1 (VAMP2 vesicles)” value ([8]; SP9 vs no peptide) was “no effect; also recorded: little effect”.

For Ac-EESKDAGIRTLVMLDEQ-NH2 [P9], the “sum of lumenal mucus cross-sectional area, caudal lobe of the right lung” value [9] was 0.382 and 0.464 and 0.617 and 0.201 and 0.286 and 0.712 and 0.372.

With “Syt1 C2B (C2B domain of synaptotagmin-1, amino acid range 271–421) (from UniProt P21707 271-421) (domain or fragment)” the Kd [10] was 24 µM.

In the case of “Syt2 C2B (C2B domain of synaptotagmin-2, amino acid range 272–422) (from UniProt P29101 272-422) (domain or fragment)”, the Kd [10] is reported as 35 µM.
